Our source for the IC50 values is patent US10759783B2, “Biaryl inhibitors of Bruton'S tyrosine kinase” (BIOGEN MA INC., priority 2013, dated 2020).

Broadly, the IC50 is the concentration that gives 50% inhibition.

One test concerns the target T1, BTK enzyme (Homo sapiens, UniProt Q06187).
T1 construct: purchased Upstate 14-552
The test can be described thus: In vitro BTK kinase assay: BTK-POLYGAT-LS assay. The format is biochemical. Conditions: ATP 10 μM, read-out: IC50 (10uMATP). A digest of the protocol:
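Human BTK activity was measured with final 10 μM ATP and 100 nM polyGAT substrate in pH 7.5 Tris buffer with 10 mM MgCl2, DTT, Triton X-100 and casein.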

Test [1] addresses BTK (phospho-BTK) in human whole blood (Homo sapiens, UniProt Q06187). The test is described as follows: In vitro PD assay in human whole blood (pBTK assay).

T1 sequence (Q06187 whole entry): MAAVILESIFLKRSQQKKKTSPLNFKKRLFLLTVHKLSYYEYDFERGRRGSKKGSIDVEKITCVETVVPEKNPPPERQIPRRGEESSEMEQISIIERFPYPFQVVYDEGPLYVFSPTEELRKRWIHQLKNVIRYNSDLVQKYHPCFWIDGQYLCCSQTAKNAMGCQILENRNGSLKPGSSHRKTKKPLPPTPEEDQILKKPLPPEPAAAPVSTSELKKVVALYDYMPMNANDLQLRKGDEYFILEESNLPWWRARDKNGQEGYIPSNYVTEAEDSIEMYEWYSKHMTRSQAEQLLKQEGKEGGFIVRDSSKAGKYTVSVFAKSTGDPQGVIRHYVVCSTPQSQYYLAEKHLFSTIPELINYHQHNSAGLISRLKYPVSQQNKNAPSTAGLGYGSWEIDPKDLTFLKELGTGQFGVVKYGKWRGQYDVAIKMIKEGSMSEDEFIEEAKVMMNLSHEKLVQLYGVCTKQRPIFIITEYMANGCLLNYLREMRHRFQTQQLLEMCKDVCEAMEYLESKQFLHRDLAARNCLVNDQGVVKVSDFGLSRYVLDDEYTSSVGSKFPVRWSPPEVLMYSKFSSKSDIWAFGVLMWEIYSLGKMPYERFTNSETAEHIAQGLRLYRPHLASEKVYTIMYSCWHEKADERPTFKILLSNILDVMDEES
Chain of BTK (phospho-BTK) in human whole blood (Q06187 whole entry): as above

Consider `Cc1cc(-c2ccnc(Nc3cnn(C)c3)n2)ccc1CN1CCN(CC(C)C)CC1=O` [Example I-249, 4-isobutyl-1-(2-methyl-4-(2-((1-methyl-1H-pyrazol-4-yl)amino)pyrimidin-4-yl)benzyl)piperazin-2-one], for which the IC50 is less than 10 nM on BTK enzyme and less than 500 nM in test [1].
The like results for `CC(C)(C)C1CCN(C(=O)NCc2ccc(-c3ccnc(Nc4cnn(CCO)c4)n3)cc2C(F)(F)F)C1` (centres unmarked) [Example I-209, 3-(tert-butyl)-N-(4-(2-((1-(2-hydroxyethyl)-1H-pyrazol-4-yl)amino)pyrimidin-4-yl)-2-(trifluoromethyl)benzyl)pyrrolidine-1-carboxamide] were, in that order, less than 10 nM and less than 500 nM.
On the same counts, the results for `Cc1cc(-c2ccnc(Nc3cnn(C)c3)n2)ccc1CNC(=O)N1CC[C@H](C(C)(C)C)C1` [Example I-253, (3R)-3-tert-butyl-N-[[2-methyl-4-[2-[(1-methylpyrazol-4-yl)amino]pyrimidin-4-yl]phenyl]methyl]pyrrolidine-1-carboxamide] are less than 10 nM and less than 500 nM.
The like results for `CCn1cc(Nc2nccc(-c3ccc(CNC(=O)N4CC(OC(C)C)C4)c(C)c3)n2)cn1` [Example I-360, N-[[4-[2-[(1-ethylpyrazol-4-yl)amino]pyrimidin-4-yl]-2-methyl-phenyl]methyl]-3-isopropoxy-azetidine-1-carboxamideacid] were, in that order, less than 10 nM and less than 500 nM.
Consider `Cc1cc(-c2ccnc(Nc3cnn([C@H]4CCN(C)C4)c3)n2)ccc1CNC(=O)c1cnc(C(C)(C)C)s1` [Example I-125, (S)-2-(tert-butyl)-N-(2-methyl-4-(2-((1-(1-methylpyrrolidin-3-yl)-1H-pyrazol-4-yl)amino)pyrimidin-4-yl)benzyl)thiazole-5-carboxamide], for which the 50% inhibitory concentration (IC50) at BTK enzyme was less than 10 nM; in test [1] it was less than 500 nM.
The like results for `Cc1cc(-c2cc(Nc3cc4n(n3)CCNC4)ncn2)ccc1CNC(=O)c1cnn(C(C)(C)C)c1` [Example I-231, 1-(tert-butyl)-N-(2-methyl-4-(6-((4,5,6,7-tetrahydropyrazolo[1,5-a]pyrazin-2-yl)amino)-pyrimidin-4-yl)benzyl)-1H-pyrazole-4-carboxamide] were, in that order, less than 10 nM and less than 500 nM.
As for `Cc1cc(-c2ccnc(Nc3cnn(C4CCC(C(=O)O)CC4)c3)n2)ccc1CNC(=O)c1cnn(C(C)(C)C)c1` (stereo in doubt) [Example I-195, cis-4-(4-((4-(4-((1-(tert-butyl)-1H-pyrazole-4-carboxamido)methyl)-3-methylphenyl)pyrimidin-2-yl)amino)-1H-pyrazol-1-yl)cyclohexanecarboxylic acid], the figures for the IC50 (at BTK enzyme; in test [1]) were less than 10 nM and less than 500 nM, respectively.
On to `Cc1cc(-c2ccnc(Nc3cnn(C4CC4)c3)n2)ccc1CNC(=O)c1cnn(C(C)(C)C)c1` [Example I-260, 1-tert-butyl-N-[[4-[2-[(1-cyclopropylpyrazol-4-yl)amino]pyrimidin-4-yl]-2-methyl-phenyl]methyl]pyrazole-4-carboxamide], for which the values for the IC50 (on BTK enzyme; in test [1]) were less than 10 nM and less than 500 nM, respectively.
The like results for `Cc1cc(-c2cc(Nc3cc4n(n3)CCN(CCO)C4)ncn2)ccc1CNC(=O)c1cnc(C(C)(C)C)s1` [Example I-271, 2-tert-butyl-N-[[4-[6-[[5-(2-hydroxyethyl)-6,7-dihydro-4H-pyrazolo[1,5-a]pyrazin-2-yl]amino]pyrimidin-4-yl]-2-methyl-phenyl]methyl]thiazole-5-carboxamide] were, in that order, less than 10 nM and less than 500 nM.
The like results for `Cc1cc(-c2cc(Nc3ccn(C)n3)ncn2)ccc1CNC(=O)c1cnc(C(C)(C)C)s1` [Example I-66, 2-(tert-butyl)-N-(2-methyl-4-(6-((1-methyl-1H-pyrazol-3-yl)amino)pyrimidin-4-yl)benzyl)thiazole-5-carboxamide] were, in that order, less than 10 nM and 500 to 1500 nM.
